Laboratory results: patent publication US9650402B2, “Heterodinuclear platinum-ruthenium complexes, preparation thereof and therapeutic use thereof” (City University of Hong Kong, priority 2015, dated 2017)

Key:
A2780cisR cells = assay: MTT cytotoxicity assay, cDDP-resistant A2780cisR cells; type: cell-based, Human; details: 72-h exposure
Protocol: (§1) Human ovarian carcinoma (A2780) and cDDP-resistant A2780 (A2780cisR) cells were cultured in RPMI 1640 with 10% FBS and 100 units penicillin/streptomycin. HeLa cells, adenocarcinomic human alveolar basal epithelial cells (A549) and cDDP-resistant A549 (A549cisR) cells were cultured in DMEM containing 10% FBS and 100 units penicillin/streptomycin. All cells were incubated at 37° C. under 5% CO2. The cDDP-resistant cells, A549cisR and A2780cisR were generated from their parental A549 or A2780 cells. Briefly, A549 or A2780 cells were cultured in complete medium containing 0.5 μg/mL cisplatin at the beginning for the first screening, and the remaining cells were cultured in complete medium containing 1.0 μg/mL cisplatin for at least 4 weeks until the resistance was obtained. An MTT assay was used to evaluate the cytotoxicity of cDDP and the subject heterodinuclear Pt—Ru compounds Ruthplatin-1, 2, 3 and 4 against A2780, A2780cisR, A549, A549cisR and HeLa. The results of this assay are depicted in Table 1 of FIG. 9. […] The results of this assay are depicted in Table 2 of FIG. 10. […] After incubating for 72 h, the original medium was removed and 0.2 mL fresh medium containing 1 mg/mL MTT was added to each well. After staining for 4 h, the medium was replaced by DMSO. The absorbance was tested at 570 and 630 nm. A control was set as medium without compound. […]

A549 cells = assay: MTT cytotoxicity assay, A549 cells; type: cell-based, human; details: 72-h exposure
Protocol: as §1

A549cisR cells = assay: MTT cytotoxicity assay, cDDP-resistant A549cisR cells; type: cell-based, human; details: 72-h exposure
Protocol: as §1

HeLa cells = assay: MTT cytotoxicity assay, HeLa cells; type: cell-based; details: 72-h exposure
Protocol: as §1

[1] = system: A2780, A2780cisR, A549, A549cisR and HeLa; assay: MTT cytotoxicity assay, all cell lines tested; type: cell-based; details: each of the cell lines, 72-h exposure
Protocol: Human ovarian carcinoma (A2780) and cDDP-resistant A2780 (A2780cisR) cells were cultured in RPMI 1640 with 10% FBS and 100 units penicillin/streptomycin. HeLa cells, adenocarcinomic human alveolar basal epithelial cells (A549) and cDDP-resistant A549 (A549cisR) cells were cultured in DMEM containing 10% FBS and 100 units penicillin/streptomycin. All cells were incubated at 37° C. under 5% CO2. The cDDP-resistant cells, A549cisR and A2780cisR were generated from their parental A549 or A2780 cells. Briefly, A549 or A2780 cells were cultured in complete medium containing 0.5 μg/mL cisplatin at the beginning for the first screening, and the remaining cells were cultured in complete medium containing 1.0 μg/mL cisplatin for at least 4 weeks until the resistance was obtained.
An MTT assay was used to evaluate the cytotoxicity of cDDP and the subject heterodinuclear Pt—Ru compounds Ruthplatin-1, 2, 3 and 4 against A2780, A2780cisR, A549, A549cisR and HeLa. The results of this assay are depicted in Table 1 of FIG. 9. […]
For each of these assays, cells were seeded in 96-well plates at a density of 1,500 cells per well (for A2780, A549 and HeLa) or 2,500 cells per well (for A2780cisR and A549cisR) and were incubated till their confluency reached about 30%. […] The absorbance was tested at 570 and 630 nm. […]

Compound	RF (resistant factor) = IC50 in A2780cisR/IC50 in A2780 (A2780cisR cells)	cytotoxicity in A549 cells (compared with cisplatin) (A549 cells)	RF (resistant factor) = IC50 in A549cisR/IC50 in A549, compared with cisplatin (A549cisR cells; A549/A549cisR cells)	cytotoxicity in A549cisR cells (compared with cisplatin) (A549cisR cells; A549cisR cells)	activity against the proliferation of HeLa cells (HeLa cells)	IC50 values compared with cDDP [1]
Cc1ccc(C(C)C)cc1.[NH3+][Pt-2]([NH3+])([OH])([Cl])([Cl])[O]C(=O)CCc1ccc[n+]([Ru-]2[O]C(=O)C(=O)[O]2)c1 [Ruthplatin-4]	2.1	significantly increased cytotoxicity	decreases	significantly increased cytotoxicity	very active	significantly lower than that of cDDP
[NH2][Pt]([NH2])([Cl])[Cl] [cDDP, Cisplatin, reference compound]	17.4					
